Reference: patent US20040024055A1, “Pharmaceutical composition containing the exract of saururus chinensis baill useful as an anticancer agent and a process for the preparation thereof” (priority 2000, published 2004)
Values after ≈ are worked out from the molar mass of the structure shown.

How the values were obtained:
HS-578T = test: MTT analysis, anticancer activity; type: cell-based, human; conditions: 10 μg/ml sample
HT-29 = test: MTT analysis, anticancer activity; type: cell-based, human; conditions: 10 μg/ml sample
CPAE = test: MTT analysis, cytotoxicity against normal cell line; type: cell-based, bovine; conditions: 10 μg/ml sample
LoVo = test: MTT analysis, anticancer activity; type: cell-based, human; conditions: 10 μg/ml sample
SK-BR-3 = test: MTT analysis, anticancer activity; type: cell-based, human; conditions: 48 hr
NIH-3T3 = test: MTT analysis, cytotoxicity against normal cell line; type: cell-based, mouse; conditions: 10 μg/ml sample
293 = test: as above; type: cell-based, human; conditions: 10 μg/ml sample
T-47D = test: MTT analysis, anticancer activity; type: cell-based, human; conditions: 48 hr
SK-MEL-28 = test: MTT analysis, anticancer activity; type: cell-based, human; conditions: 48 hr
BT-549 = test: MTT analysis, anticancer activity; type: cell-based, human; conditions: 10 μg/ml sample
Solubility = type: physicochemical
NCI-H69 = test: MTT analysis, anticancer activity; type: cell-based, human; conditions: 10 μg/ml sample
[1] = tested on: DU-145 prostate cancer cell line; test: MTT analysis, anticancer activity; type: cell-based, human; conditions: 48 hr
Method: (§1) To be specific, SK-Hep-1 cell, which is liver cancer cell line, was added to 96-well microplate (Falcon, USA) with the concentration of 3×10^5 cells/ml by 100 μl per well. Each extracted and separated substance dissolved in DMSO was added to the well by 100 μl for the final concentration to be from 50 μg/ml to 0.0244 μg/ml, with 200 μl of final volume. Each cell was cultured for 48 hr in a culture medium of 37° C. and 5% CO2. After cultivation, 20 μl of phosphate buffer solution containing 5 mg/ml of MTT (3-[4,5-dimethylthiazol-2-yl]-2,5-diphenyltetrazoliumbromide, Sigma Co.) reagent was added to each well, and then cultured for 4 hr. After taking 100 μl of supernant from each culture medium, 100 μl of 0.04N hydrochloric acid-isopropanol was added. After letting alone overnight, absorbance was measured at 560 nm using automatic Eliza detector (Molecular Divices Corp., USA). Anticancer activity of each extracted and separated substance was calculated from the absorbance value by Equation 1 and was expressed in terms of cell.
(§2) Average Existence Rate(%)=(Absorbance of Treated Group)/(Absorbance of Control Group)×100

KATO-III = test: MTT analysis, anticancer activity; type: cell-based, human
Hep-2 = test: MTT analysis, anticancer activity; type: cell-based, human
SK-OV-3 = test: MTT analysis, anticancer activity; type: cell-based, human; conditions: 10 μg/ml sample
T98G = test: MTT analysis, anticancer activity; type: cell-based, human; conditions: 48 hr
BT-20 = test: MTT analysis, anticancer activity; type: cell-based, human; conditions: 48 hr
A431 = test: MTT analysis, anticancer activity; type: cell-based, human; conditions: 48 hr
[2] = tested on: PC-3 prostate cancer cell line; test: MTT analysis, anticancer activity; type: cell-based, human; conditions: 48 hr
MCF-7 = test: MTT analysis, anticancer activity; type: cell-based, human
HS-746T = test: MTT analysis, anticancer activity; type: cell-based, human; conditions: 10 μg/ml sample
[3] = tested on: SK-Hep-1 liver cancer cell line; test: MTT analysis, anticancer activity; type: cell-based, human; conditions: for IC50 SK-Hep-1: 48 hr
Method: as §1, §2

HeLa = test: MTT analysis, anticancer activity; type: cell-based, human; conditions: 48 hr
HT1080 = test: MTT analysis, anticancer activity; type: cell-based, human; conditions: 48 hr
ME-180 = test: MTT analysis, anticancer activity; type: cell-based, human; conditions: 10 μg/ml sample
3T3-L1 = test: MTT analysis, cytotoxicity against normal cell line; type: cell-based, mouse; conditions: 10 μg/ml sample
CHO = test: as above; type: cell-based, Chinese hamster; conditions: 10 μg/ml sample
SK-N-SH = test: MTT analysis, anticancer activity; type: cell-based, human; conditions: 48 hr
HS27 = test: MTT analysis, cytotoxicity against normal cell line; type: cell-based, human; conditions: 10 μg/ml sample
HS683 = test: MTT analysis, anticancer activity; type: cell-based, human; conditions: 48 hr

## COc1ccc(C(O)C(C)Oc2ccc(C3OC(c4ccc(OC(C)[C@@H](O)c5ccc(OC)c(OC)c5)c(OC)c4)C(C)C3C)cc2OC)cc1OC (single isomer, unassigned) [HNP-98701A, epi-manassantin A]
HS-578T
  Existence rate class, HS-578T (in IC50 table): N.E.^b (Not effective; existence rate larger than 90% for 10 μg/ml sample)
HT-29
  Existence rate class, HT-29 (in IC50 table): * (Existence rate larger than 60% for 10 μg/ml sample)
CPAE
  Existence rate class, CPAE (in IC50 table): * (Existence rate larger than 60% for 10 μg/ml sample)
LoVo
  Existence rate class, LoVo (in IC50 table): * (Existence rate larger than 60% for 10 μg/ml sample)
SK-BR-3
  IC50 SK-BR-3: 0.1698 µg/mL (≈ 0.232 µM)
NIH-3T3
  Existence rate class, NIH-3T3 (in IC50 table): N.E. (Not effective; existence rate larger than 90% for 10 μg/ml sample)
293
  Existence rate class, 293 (in IC50 table): *^a (Existence rate larger than 60% for 10 μg/ml sample)
T-47D
  IC50 T-47D: 0.0400 µg/mL (≈ 0.0546 µM)
SK-MEL-28
  IC50 SK-MEL-28: 0.2544 µg/mL (≈ 0.347 µM)
BT-549
  Existence rate class, BT-549 (in IC50 table): *^a (Existence rate larger than 60% for 10 μg/ml sample)
Solubility
  Solubility in methanol, ethanol, ethyl acetate, chloroform and dimethylsulfoxide (DMSO): highly soluble
  Solubility in water, acetone, ether and hexane: insoluble
NCI-H69
  Existence rate class, NCI-H69 (in IC50 table): * (Existence rate larger than 60% for 10 μg/ml sample)
[1]
  IC50 DU-145: 0.0537 µg/mL (≈ 0.0733 µM)
KATO-III; Homo sapiens, KATO III, 48 h, read-out: IC50 KATO-III, MTT, 48 hr
  IC50: 0.617 µg/mL (≈ 0.842 µM)
Hep-2; Homo sapiens, HEp-2, 48 h, read-out: IC50 Hep-2, MTT, 48 hr
  IC50: 0.0406 µg/mL (≈ 0.0554 µM)
SK-OV-3
  Existence rate class, SK-OV-3 (in IC50 table): N.E. (Not effective; existence rate larger than 90% for 10 μg/ml sample)
T98G
  IC50 T98G: 0.2470 µg/mL (≈ 0.337 µM)
BT-20
  IC50 BT-20: 0.0996 µg/mL (≈ 0.136 µM)
A431
  IC50 A431: 0.4903 µg/mL (≈ 0.669 µM)
[2]
  IC50 PC-3: 0.1249 µg/mL (≈ 0.17 µM)
MCF-7; Homo sapiens, MCF7, 48 h, read-out: IC50 MCF-7
  IC50: > 10 µg/mL
HS-746T
  Existence rate class, HS-746T (in IC50 table): * (Existence rate larger than 60% for 10 μg/ml sample)
[3]
  IC50 SK-Hep-1: 0.0795 µg/mL (≈ 0.108 µM)
HeLa
  IC50 HeLa: 0.4233 µg/mL (≈ 0.578 µM)
HT1080
  IC50 HT1080: 0.4267 µg/mL (≈ 0.582 µM)
ME-180
  Existence rate class, ME-180 (in IC50 table): * (Existence rate larger than 60% for 10 μg/ml sample)
3T3-L1
  Existence rate class, 3T3-L1 (in IC50 table): N.E.^b (Not effective; existence rate larger than 90% for 10 μg/ml sample)
CHO
  Existence rate class, CHO (in IC50 table): * (Existence rate larger than 60% for 10 μg/ml sample)
SK-N-SH
  IC50 SK-N-SH: 1.2849 µg/mL (≈ 1.75 µM)
HS27
  Existence rate class, HS27 (in IC50 table): N.E. (Not effective; existence rate larger than 90% for 10 μg/ml sample)
HS683
  IC50 HS683: 0.5561 µg/mL (≈ 0.759 µM)

## O=c1[nH]cc(F)c(=O)[nH]1 [5-FU, 5-fluorouracil]
[3]; Homo sapiens, SK-HEP1, 48 hr
  IC50: > 50 µg/mL

## COc1ccc(C(O)C(C)Oc2ccc(C3OC(c4ccc(OC(C)[C@@H](O)c5ccc(OC)c(OC)c5)c(OC)c4)C(C)C3C)cc2OC)cc1OC (single isomer, unassigned) [HNP-98701B]
HS-578T
  Existence rate class, HS-578T (in IC50 table): N.E. (Not effective; existence rate larger than 90% for 10 μg/ml sample)
HT-29
  Existence rate class, HT-29 (in IC50 table): * (Existence rate larger than 60% for 10 μg/ml sample)
CPAE
  Existence rate class, CPAE (in IC50 table): * (Existence rate larger than 60% for 10 μg/ml sample)
LoVo
  Existence rate class, LoVo (in IC50 table): * (Existence rate larger than 60% for 10 μg/ml sample)
SK-BR-3
  IC50 SK-BR-3: 0.0866 µg/mL (≈ 0.118 µM)
NIH-3T3
  Existence rate class, NIH-3T3 (in IC50 table): N.E. (Not effective; existence rate larger than 90% for 10 μg/ml sample)
293
  Existence rate class, 293 (in IC50 table): * (Existence rate larger than 60% for 10 μg/ml sample)
T-47D
  IC50 T-47D: 0.0167 µg/mL (≈ 0.0228 µM)
SK-MEL-28
  IC50 SK-MEL-28: 0.1123 µg/mL (≈ 0.153 µM)
BT-549
  Existence rate class, BT-549 (in IC50 table): * (Existence rate larger than 60% for 10 μg/ml sample)
Solubility
  Solubility in methanol, ethanol, ethyl acetate, chloroform and dimethylsulfoxide (DMSO): highly soluble
  Solubility in water, acetone, ether and hexane: insoluble
NCI-H69
  Existence rate class, NCI-H69 (in IC50 table): * (Existence rate larger than 60% for 10 μg/ml sample)
[1]
  IC50 DU-145: 0.0184 µg/mL (≈ 0.0251 µM)
KATO-III; MTT, 48 hr
  IC50 KATO-III: 0.4477 µg/mL (≈ 0.611 µM)
Hep-2; MTT, 48 hr
  IC50 Hep-2: 0.0329 µg/mL (≈ 0.0449 µM)
SK-OV-3
  Existence rate class, SK-OV-3 (in IC50 table): N.E. (Not effective; existence rate larger than 90% for 10 μg/ml sample)
T98G
  IC50 T98G: 0.1003 µg/mL (≈ 0.137 µM)
BT-20
  IC50 BT-20: 0.0292 µg/mL (≈ 0.0398 µM)
A431
  IC50 A431: 0.2344 µg/mL (≈ 0.32 µM)
[2]
  IC50 PC-3: 0.0695 µg/mL (≈ 0.0948 µM)
MCF-7; MTT, 48 hr
  IC50 MCF-7: >10 µg/mL
HS-746T
  Existence rate class, HS-746T (in IC50 table): * (Existence rate larger than 60% for 10 μg/ml sample)
[3]
  IC50 SK-Hep-1: 0.0388 µg/mL (≈ 0.0529 µM)
HeLa
  IC50 HeLa: 0.1680 µg/mL (≈ 0.229 µM)
HT1080
  IC50 HT1080: 0.1882 µg/mL (≈ 0.257 µM)
ME-180
  Existence rate class, ME-180 (in IC50 table): * (Existence rate larger than 60% for 10 μg/ml sample)
3T3-L1
  Existence rate class, 3T3-L1 (in IC50 table): N.E. (Not effective; existence rate larger than 90% for 10 μg/ml sample)
CHO
  Existence rate class, CHO (in IC50 table): * (Existence rate larger than 60% for 10 μg/ml sample)
SK-N-SH
  IC50 SK-N-SH: 0.4314 µg/mL (≈ 0.589 µM)
HS27
  Existence rate class, HS27 (in IC50 table): N.E. (Not effective; existence rate larger than 90% for 10 μg/ml sample)
HS683
  IC50 HS683: 0.2325 µg/mL (≈ 0.317 µM)
